Measured values taken from patent US9650402B2, “Heterodinuclear platinum-ruthenium complexes, preparation thereof and therapeutic use thereof” (City University of Hong Kong, priority 2015, dated 2017).

Tests used:
[1] = system: A2780cisR cells; test: MTT cytotoxicity assay, cDDP-resistant A2780cisR cells; assay type: cell-based, Human; conditions: 72-h exposure
Procedure: (§1) Human ovarian carcinoma (A2780) and cDDP-resistant A2780 (A2780cisR) cells were cultured in RPMI 1640 with 10% FBS and 100 units penicillin/streptomycin. HeLa cells, adenocarcinomic human alveolar basal epithelial cells (A549) and cDDP-resistant A549 (A549cisR) cells were cultured in DMEM containing 10% FBS and 100 units penicillin/streptomycin. All cells were incubated at 37° C. under 5% CO2. The cDDP-resistant cells, A549cisR and A2780cisR were generated from their parental A549 or A2780 cells. Briefly, A549 or A2780 cells were cultured in complete medium containing 0.5 μg/mL cisplatin at the beginning for the first screening, and the remaining cells were cultured in complete medium containing 1.0 μg/mL cisplatin for at least 4 weeks until the resistance was obtained. An MTT assay was used to evaluate the cytotoxicity of cDDP and the subject heterodinuclear Pt—Ru compounds Ruthplatin-1, 2, 3 and 4 against A2780, A2780cisR, A549, A549cisR and HeLa. The results of this assay are depicted in Table 1 of FIG. 9. […] The results of this assay are depicted in Table 2 of FIG. 10. […] After incubating for 72 h, the original medium was removed and 0.2 mL fresh medium containing 1 mg/mL MTT was added to each well. After staining for 4 h, the medium was replaced by DMSO. The absorbance was tested at 570 and 630 nm. A control was set as medium without compound. […]

[2] = system: A2780, A2780cisR, A549, A549cisR and HeLa; test: MTT cytotoxicity assay, all cell lines tested; assay type: cell-based; conditions: each of the cell lines, 72-h exposure
Procedure: Human ovarian carcinoma (A2780) and cDDP-resistant A2780 (A2780cisR) cells were cultured in RPMI 1640 with 10% FBS and 100 units penicillin/streptomycin. HeLa cells, adenocarcinomic human alveolar basal epithelial cells (A549) and cDDP-resistant A549 (A549cisR) cells were cultured in DMEM containing 10% FBS and 100 units penicillin/streptomycin. All cells were incubated at 37° C. under 5% CO2. The cDDP-resistant cells, A549cisR and A2780cisR were generated from their parental A549 or A2780 cells. Briefly, A549 or A2780 cells were cultured in complete medium containing 0.5 μg/mL cisplatin at the beginning for the first screening, and the remaining cells were cultured in complete medium containing 1.0 μg/mL cisplatin for at least 4 weeks until the resistance was obtained.
An MTT assay was used to evaluate the cytotoxicity of cDDP and the subject heterodinuclear Pt—Ru compounds Ruthplatin-1, 2, 3 and 4 against A2780, A2780cisR, A549, A549cisR and HeLa. The results of this assay are depicted in Table 1 of FIG. 9. […]
For each of these assays, cells were seeded in 96-well plates at a density of 1,500 cells per well (for A2780, A549 and HeLa) or 2,500 cells per well (for A2780cisR and A549cisR) and were incubated till their confluency reached about 30%. […] The absorbance was tested at 570 and 630 nm. […]

[3] = system: A549cisR cells; test: MTT cytotoxicity assay, cDDP-resistant A549cisR cells; assay type: cell-based, human; conditions: 72-h exposure
Procedure: as §1

[4] = system: HeLa cells; test: MTT cytotoxicity assay, HeLa cells; assay type: cell-based; conditions: 72-h exposure
Procedure: as §1

[5] = system: A549 cells; test: MTT cytotoxicity assay, A549 cells; assay type: cell-based, human; conditions: 72-h exposure
Procedure: as §1

| Compound | RF (resistant factor) = IC50 in A2780cisR/IC50 in A2780 [1] | IC50 values compared with cDDP [2] | RF (resistant factor) = IC50 in A549cisR/IC50 in A549, compared with cisplatin ([3]; A549/A549cisR cells) | cytotoxicity in A549cisR cells (compared with cisplatin) ([3]; A549cisR cells) | activity against the proliferation of HeLa cells [4] | cytotoxicity in A549 cells (compared with cisplatin) [5] |
| --- | --- | --- | --- | --- | --- | --- |
| [NH2][Pt]([NH2])([Cl])[Cl] [cDDP, Cisplatin, reference compound] | 17.4 |  |  |  |  |  |
| Cc1ccc(C(C)C)cc1.[NH3+][Pt-2]([NH3+])([OH])([Cl])([Cl])[O]C(=O)CCc1ccc[n+]([Ru-]2[O]C(=O)C(=O)[O]2)c1 [Ruthplatin-4] | 2.1 | significantly lower than that of cDDP | decreases | significantly increased cytotoxicity | very active | significantly increased cytotoxicity |
